In US20050197350A1, “Novel quinoline, tetrahydroquinazoline, and pyrimidine derivatives and methods of treatment related to the use thereof” (TAISHO PHARMACEUTICAL CO., LTD., priority 2003, published 2005):

tested on: MCH receptors; assay: MCH receptor activity class (method not given); conditions: class by percent of control at 10^-7 M or IC50

Structure (SMILES)	class
CN(C)c1nc(N[C@H]2CC[C@@H](NC(=S)Nc3ccc(Br)cc3C(F)(F)F)CC2)nc2c1CCCC2 [compound 1765]	1 (Class 1: The value of percent of control at 10^−7 M was less than 40% or the value of IC50 was less than 50 nM.)
Cc1cc(Cl)ccc1NC(=S)N[C@H]1CC[C@@H](Nc2nc3c(c(N(C)C)n2)CCCC3)CC1 [compound 1766, N-(4-chloro-2-methylphenyl)-N′-(cis-4-{[4-(dimethylamino)-5,6,7,8-tetrahydroquinazolin-2-yl]amino}cyclohexyl)thiourea]	1 (Class 1: The value of percent of control at 10^−7 M was less than 40% or the value of IC50 was less than 50 nM.)
CN(C)c1nc(N[C@H]2CC[C@@H](NC(=S)NCc3cccc4ccccc34)CC2)nc2c1CCCC2 [compound 1767]	3 (Class 3 The value of percent of control at 10^−7 M was more than 60% or the value of IC50 was more than 200 nM.)
COc1cccc(CNC(=S)N[C@H]2CC[C@@H](Nc3nc4c(c(N(C)C)n3)CCCC4)CC2)c1OC [compound 1768]	3 (Class 3 The value of percent of control at 10^−7 M was more than 60% or the value of IC50 was more than 200 nM.)
Cc1cc(C)c(NC(=S)N[C@H]2CC[C@@H](Nc3nc4c(c(N(C)C)n3)CCCC4)CC2)cc1C [compound 1769]	3 (Class 3 The value of percent of control at 10^−7 M was more than 60% or the value of IC50 was more than 200 nM.)
CN(C)c1nc(N[C@H]2CC[C@@H](NC(=S)Nc3ccccc3-c3ccccc3)CC2)nc2c1CCCC2 [compound 1770]	3 (Class 3 The value of percent of control at 10^−7 M was more than 60% or the value of IC50 was more than 200 nM.)
Cc1cc([N+](=O)[O-])ccc1NC(=S)N[C@H]1CC[C@@H](Nc2nc3c(c(N(C)C)n2)CCCC3)CC1 [compound 1771]	3 (Class 3 The value of percent of control at 10^−7 M was more than 60% or the value of IC50 was more than 200 nM.)
CN(C)c1nc(N[C@H]2CC[C@@H](NC(=S)NCc3cccc(Cl)c3)CC2)nc2c1CCCC2 [compound 1772]	3 (Class 3 The value of percent of control at 10^−7 M was more than 60% or the value of IC50 was more than 200 nM.)
Cc1cc(F)ccc1NC(=S)N[C@H]1CC[C@@H](Nc2nc3c(c(N(C)C)n2)CCCC3)CC1 [compound 1775]	2 (Class 2: The value of percent of control at 10^−7 M was from 40% to 60% or the value of IC′50 was from 50 nM to 200 nM.)
COc1ccc(NC(=S)N[C@H]2CC[C@@H](Nc3nc4c(c(N(C)C)n3)CCCC4)CC2)c(C)c1 [compound 1776]	2 (Class 2: The value of percent of control at 10^−7 M was from 40% to 60% or the value of IC′50 was from 50 nM to 200 nM.)
COc1cc(OC)c(NC(=S)N[C@H]2CC[C@@H](Nc3nc4c(c(N(C)C)n3)CCCC4)CC2)cc1Cl [compound 1777]	1 (Class 1: The value of percent of control at 10^−7 M was less than 40% or the value of IC50 was less than 50 nM.)
C[C@@H](NC(=S)N[C@H]1CC[C@@H](Nc2nc3c(c(N(C)C)n2)CCCC3)CC1)c1ccccc1 [compound 1778]	3 (Class 3 The value of percent of control at 10^−7 M was more than 60% or the value of IC50 was more than 200 nM.)
Cc1cccc(NC(=S)N[C@H]2CC[C@@H](Nc3nc4c(c(N(C)C)n3)CCCC4)CC2)c1C [compound 1779]	3 (Class 3 The value of percent of control at 10^−7 M was more than 60% or the value of IC50 was more than 200 nM.)
CN(C)c1nc(N[C@H]2CC[C@@H](NC(=S)Nc3c(F)cc(Br)cc3Br)CC2)nc2c1CCCC2 [compound 1780, N-(2,4-dibromo-6-fluorophenyl)-N′-(cis-4-{[4-(dimethylamino)-5,6,7,8-tetrahydroquinazolin-2-yl]amino}cyclohexyl)thiourea]	2 (Class 2: The value of percent of control at 10^−7 M was from 40% to 60% or the value of IC′50 was from 50 nM to 200 nM.)
Cc1cc(Cl)cc(Cl)c1NC(=S)N[C@H]1CC[C@@H](Nc2nc3c(c(N(C)C)n2)CCCC3)CC1 [compound 1781, N-(2,4-dichloro-6-methylphenyl)-N′-(cis-4-{[4-(dimethylamino)-5,6,7,8-tetrahydroquinazolin-2-yl]amino}cyclohexyl)thiourea]	1 (Class 1: The value of percent of control at 10^−7 M was less than 40% or the value of IC50 was less than 50 nM.)
CCOc1ccccc1NC(=S)N[C@H]1CC[C@@H](Nc2nc3c(c(N(C)C)n2)CCCC3)CC1 [compound 1782]	2 (Class 2: The value of percent of control at 10^−7 M was from 40% to 60% or the value of IC′50 was from 50 nM to 200 nM.)
Cc1cccc(C(C)C)c1NC(=S)N[C@H]1CC[C@@H](Nc2nc3c(c(N(C)C)n2)CCCC3)CC1 [compound 1783]	3 (Class 3 The value of percent of control at 10^−7 M was more than 60% or the value of IC50 was more than 200 nM.)
CN(C)c1nc(N[C@H]2CC[C@@H](NC(=S)Nc3ccc4c(c3)OCCO4)CC2)nc2c1CCCC2 [compound 1784]	3 (Class 3 The value of percent of control at 10^−7 M was more than 60% or the value of IC50 was more than 200 nM.)
CN(C)c1nc(N[C@H]2CC[C@@H](NC(=S)Nc3ccc4c(c3)OCO4)CC2)nc2c1CCCC2 [compound 1785]	3 (Class 3 The value of percent of control at 10^−7 M was more than 60% or the value of IC50 was more than 200 nM.)
Cc1c(Cl)cccc1NC(=S)N[C@H]1CC[C@@H](Nc2nc3c(c(N(C)C)n2)CCCC3)CC1 [compound 1786]	3 (Class 3 The value of percent of control at 10^−7 M was more than 60% or the value of IC50 was more than 200 nM.)
CN(C)c1nc(N[C@H]2CC[C@@H](NC(=S)Nc3ccc(Br)cc3OC(F)(F)F)CC2)nc2c1CCCC2 [compound 1787]	2 (Class 2: The value of percent of control at 10^−7 M was from 40% to 60% or the value of IC′50 was from 50 nM to 200 nM.)
COc1cc(NC(=S)N[C@H]2CC[C@@H](Nc3nc4c(c(N(C)C)n3)CCCC4)CC2)c(OC)cc1Cl [compound 1788]	2 (Class 2: The value of percent of control at 10^−7 M was from 40% to 60% or the value of IC′50 was from 50 nM to 200 nM.)
Cc1onc(-c2ccccc2)c1NC(=S)N[C@H]1CC[C@@H](Nc2nc3c(c(N(C)C)n2)CCCC3)CC1 [compound 1789]	3 (Class 3 The value of percent of control at 10^−7 M was more than 60% or the value of IC50 was more than 200 nM.)
CN(C)c1nc(NC2CCC(NC(=S)NC3CC4CCC3C4)CC2)nc2c1CCCC2 (stereo not shown) [compound 1790]	3 (Class 3 The value of percent of control at 10^−7 M was more than 60% or the value of IC50 was more than 200 nM.)
COC(=O)c1scc(C)c1NC(=S)N[C@H]1CC[C@@H](Nc2nc3c(c(N(C)C)n2)CCCC3)CC1 [compound 1791]	3 (Class 3 The value of percent of control at 10^−7 M was more than 60% or the value of IC50 was more than 200 nM.)
COC(=O)c1sccc1NC(=S)N[C@H]1CC[C@@H](Nc2nc3c(c(N(C)C)n2)CCCC3)CC1 [compound 1792]	3 (Class 3 The value of percent of control at 10^−7 M was more than 60% or the value of IC50 was more than 200 nM.)
CCCCc1ccc(NC(=S)N[C@H]2CC[C@@H](Nc3nc4c(c(N(C)C)n3)CCCC4)CC2)c(C)c1 [compound 1793]	3 (Class 3 The value of percent of control at 10^−7 M was more than 60% or the value of IC50 was more than 200 nM.)
CN(C)c1nc(N[C@H]2CC[C@@H](NC(=O)Nc3cc(Cl)cc(Cl)c3)CC2)nc2c1CCCC2 [compound 1794]	3 (Class 3 The value of percent of control at 10^−7 M was more than 60% or the value of IC50 was more than 200 nM.)
